The nature of one data set: Solubility study in PBS. The class given is physicochemical. The following applies: aqueous buffer, thermodynamic from solid; PBS (pH 7.2 to 7.4); read-out: Solubility, concentration. The procedure:
The mixture was vortexed for 2 min until the solid was dissolved. The solubility was calculated as: C=m/V, C: concentration, m: sample weight, V: PBS total volume.

Data set [1] concerns human liver cancer HepG2 cell subcutaneous xenograft tumor. In words: Pharmacodynamic assessment, HepG2 xenograft model. The note with it: 4 mg/kg iv biw×3, day 36 after grouping. The class given is in vivo, BALB/c nude mouse. The procedure: Objective: Pre-clinical assessment of the efficacy of CR202 series of compounds in BALB/c nude mouse model with human liver cancer HepG2 cell subcutaneous xenograft tumor with no FOLR1 or PSMA receptor expression.
Procedures: 0.1 mL (10×10^6 cells) of HepG2 cells was subcutaneously inoculated on the right back of each mouse, and the mice were randomized into a modeling control group and treatment groups after the mean tumor volume was approximately 100-150 mm^3. The treatment was started on the first day of grouping. Before the start of administration, the animals were weighed, and the tumor volume was measured with a vernier caliper. After the grafting of tumor cells, the routine monitoring included the effect on tumor growth and the effect of treatment on the normal behavior of the animals, specifically the activity, food and water intake, weight gain or loss, the eyes, the hair, and other abnormal conditions. After the administration was started, the body weight and tumor size of the mice were measured periodically. The calculation formula for tumor volume: Tumor volume V (mm^3)=1/2×(a×b^2) (where a denotes the long diameter and b notes the short diameter). The calculation formula for the tumor growth inhibition, TGI (%), is TGI %=(1−T/C)×100% (T and C are the mean tumor volume of the treatment group and control group, respectively, at a particular time point).

In data set [2] the test system is human breast cancer MDA-MB-231 cell subcutaneous xenograft. In words: Pharmacodynamic assessment, MDA-MB-231 xenograft model. The format is in vivo. The note with it: 4 mg/kg iv biw×3. The source says: Objective: Pre-clinical pharmacodynamic study of test compounds CR20274, CR20282, and CR20285 in BALB/c nude mouse model with human breast cancer MDA-MB-231 cell subcutaneous xenograft.
(§1) Procedures: MDA-MB-231 tumor mass was grafted subcutaneously at the right axilla of the mice, and the mice were randomized after the mean tumor volume was 200 mm^3. After administration, the animals were monitored daily for health conditions and death, and the routine examinations included observation of the effect on tumor growth and the effect of the treatment on the daily performance of the animals, such as behavioral activities, food and water intake, weight changes (measured once every other day), appearance, or other abnormal conditions. Whether the tumor growth was inhibited or delayed or the tumor was cured was also observed. The tumor volume was measured periodically. The tumor volume was calculated using the following formula: V=1/2×(a×b^2), where a and b denote the long diameter and short diameter of the tumor, respectively. The calculation formula for the tumor growth inhibition, TGI (%), is TGI %=(1−T/C)×100% (T and C are the mean tumor volume of the treatment group and control group, respectively, at a particular time point).

The test system of data set [3] is human prostate cancer 22RV1 cell subcutaneous xenograft tumor. In words: Pharmacodynamic assessment, 22RV1 xenograft model. The class given is in vivo. The note with it: 4 mg/kg iv biw×3, day 31 after grouping.
Source text: Objective: Pre-clinical pharmacodynamic study of compounds for treating BALB/c nude mouse model with 22RV1 cell subcutaneous xenograft tumor (overexpressing PSMA).
as §1, with “22RV1” for “MDA-MB-231”, “back” for “axilla”, “150” for “200”, “respectively.” for “respectively. The calculation formula for the tumor growth inhibition, TGI (%), is TGI %=(1−T/C)×100% (T and C are the mean tumor volume of the treatment group and control group, respectively, at a particular time point).”

Data set [4] relates to human prostate cancer C4-2 cell subcutaneous xenograft tumor. Briefly: Pharmacodynamic assessment, C4-2 xenograft model. The format is in vivo, NCG mouse. The following applies: 4 mg/kg i.v biw×3, day 23 after grouping. The source says:
Objective: Pre-clinical assessment of the efficacy of compounds for treating NCG mouse model with C4-2 cell subcutaneous xenograft tumor (overexpressing PSMA).
Procedures: C4-2 cells were subcutaneously grafted at the right back of the mice, and the mice were randomized when the mean tumor volume reached 100-150 mm^3. After the administration, the routine monitoring included the effect on tumor growth and the effect of treatment on the normal behavior of the animals, specifically the activity, food and water intake, weight gain or loss, the eyes, the hair, and other abnormal conditions. Clinical symptoms observed during the study were recorded in the raw data. After the administration was started, the body weight and tumor size of the mice were measured periodically. The tumor volume was calculated using the following formula: V=1/2×(a×b^2), where a and b denote the long diameter and short diameter of the tumor, respectively.

The nature of data set [5]: Single-dose PK assessment, tumor concentration in HT-29 xenograft mice. The format is in vivo, BALB/c nude male mouse. The following applies: 2 mg/kg CR20274 single tail vein injection. The procedure: Objective: Single-dose PK assessment of compounds CR20214 and CR20274 in BALB/c nude male mouse model with human colorectal cancer HT-29 cell subcutaneous xenograft.
Procedures: HT-29 cells were grafted subcutaneously on the right back of the mice (purchased from GemPharmatech Co., Ltd., weighing 20-25 g, male, aged 45-60 days), and the mice were randomized when the mean tumor volume reached about 300 mm^3. 6.25 mg/kg of CR20214 and 2 mg/kg of CR20274 were given to the HT-29 tumor-bearing mice in a single dose by tail vein injection. The tumors were taken at […], 0.25, 0.5, 1, 2, 4, 8, 24, 48 and 72 h post-dose, ground, and homogenized. The homogenate was extracted, and after centrifugation, the supernatants were injected into a triple quadrupole tandem mass spectrometer to determine the CR20274 content in the tumors.

As to `CC[C@@H]1C(=O)N(C)c2cnc(Nc3ccc(-c4cn([C@H]5CC[C@@H](NCCOCCC#Cc6cccc7c6CN(C6CCC(=O)NC6=O)C7=O)CC5)nn4)cc3OC)nc2N1C1CCCC1` (some centres unmarked) [CR20274], the solubility at 2 min in the data set “Solubility study in PBS” is less than 900 µg/mL. For the same compound, the Mean tumor volume in data set [1] was found to be 1329.84 mm^3; in data set [3] it was 1274.47 mm^3; in data set [4], 2198.07 mm^3. For the same compound, the TGI is 22.99% in data set [1], 31.55% in data set [3] and −25.70% in data set [4]. For the same compound, the “Anti-tumor effect” value in data set [2] is listed as “no anti-tumor effect”. Further, the “Concentration of CR20274 in tumors (C2)” value in data set [5] (0.25 h) turned out to be 0.206 nmol/g; in data set [5] (0.5 h) it was 0.222 nmol/g; in data set [5] (1 h) it was 0.191 nmol/g; in data set [5] (2 h) it was 0.180 nmol/g; in data set [5] (4 h), 0.164 nmol/g; in data set [5] (8 h), 0.154 nmol/g. The “Concentration of CR20274 in tumors (C2)” value in data set [5] (24 h) came out at 0.104 nmol/g; in data set [5] (48 h), 0.064 nmol/g; in data set [5] (72 h) it was 0.044 nmol/g.

The values are drawn from US20260007756A1, “COMPOUND AND USE THEREOF” (COHERENT BIOPHARMA (SUZHOU) LIMITED, priority 2022, published 2026).
